Legend:
[1] = system: Covid-19; test: Ongoing intervention trial of vitamin K administration in Covid-19 patients; format: in vivo; settings: twelve Covid-19 patients have received treatment
Description: (§1) Procoagulant prothrombin activation by vitamin K remained preserved in the majority of Covid-19 patients. Impaired MGP activation was linked to accelerated elastic fiber degradation and premorbid vascular calcifications. About fifty percent of total anticoagulant protein S is activated extra-hepatically by vitamin K, and this activation is likely also impaired during Covid-19. Given the fact that procoagulant activity remains intact, this is compatible with the increased thrombogenicity that is frequently observed in severe Covid-19. Based on our findings we expect that increasing MGP and protein S activity by vitamin K administration will considerably improve Covid-19 outcomes. An intervention trial to confirm this hypothesis is currently ongoing.

[2] = system: Covid-19; test: Cohort of hospitalized COVID-19 patients treated with vitamin K, compared with previous COVID-19 cohorts; format: in vivo; settings: hospitalized COVID-19 cohort treated with vitamin K vs previous COVID-19 cohorts from the same hospital
Description: as §1

[3] = system: dp-ucMGP; settings: vitamin K supplementation; cited from earlier work
dp-ucMGP, sequence (P08493 20-96): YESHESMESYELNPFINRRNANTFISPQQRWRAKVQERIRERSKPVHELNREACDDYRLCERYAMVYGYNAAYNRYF

vitamin K
safety issues [1]: no unexpected safety issues | ICU admission rate [2]: significantly lower | mortality [2]: significantly lower | effect on dp-ucMGP levels [3]: reducing effect
